# Experimental data from patent US6664263B2, “1,8-naphthalimide imidazo{4,5,1-de}acridones with anti-tumor activity” (priority 2000, dated 2003).
# Where two headings read alike, the source gives them in different places.
# How the values were obtained:
# [1] = tested on: HCT116, HT29, A549 and MelSK2 tumor cell lines; assay: MTT cell proliferation assay at 100 nM on four tumor cell lines (FIG. 2); type: cell-based; conditions: 96 hours; for cytotoxic activity against the three adenocarcinomas: HCT116, HT29, A549
# Procedure: (§1) Cancer Cell Lines. Human colon carcinoma HCT116 and HT29, human melanoma MELSK2, human lung cancer A549, human leukemia HL60 and human breast cancer MCF7 cells were purchased from the American Type Culture Collection (Rockville, Md.). Human pancreatic tumor cell lines 6.03 and 10.05 were a gift from Dr. Elizabeth Jaffe, Johns Hopkins University.
# In Vitro Cytotoxicity Studies. Cells were seeded in quadruplicate for each studied concentration in 96-well plates (100 μL of medium containing 2000-2500 cells per well) and were allowed to grow for 24 h (day 0). Stock solutions (2.5 mM) of test compounds were prepared freshly by dissolving their free base forms in distilled water-DMSO (50:50) mixture containing two equivalents of methanesulfonic acid and then diluted in distilled water to the concentration of 500 μM. These solutions were used to prepare 2 μM working solution and its 10-fold serial dilutions in appropriate media. 100 μL of drug containing medium or vehicle (control) was added to each well on day 1. The cytotoxicity was determined using two different methods: the MTT-based, CellTiter96™ Non-Radioactive Cell Proliferation Assay (Promega Inc., Madison, Wis.) according to instructions provided by the manufacturer, and/or the sulforhodamine B (SRB) method (Skehan et al., J. Natl. Cancer Inst. 82:1107-1112 (1990)). At the time at which drugs were added assays were performed on extra reference plates to determine the cell population density at time 0 (T0). After 96 h incubation at 37 ° C. in a humidified atmosphere containing 5% CO2, the assays were performed on test (T) and control (C) plates. The absorbance of the wells was determined by a Microplate Reader at […]. Cellular responses were calculated from the data as described previously: 100×[(T−T0)/(C−T0)] for T>T0 and 100×[(T−T0)/T0] for T<T0. […]
# At the end of the test period the wells are treated with the MTT dye solution and incubated for 4 hours. […] This precipitate is solubilized, and the absorption at 570 nm is read in an ELISA reader.
# MCF7 cells = assay: cells; type: cell-based; conditions: for IC50: read-out: IC50 - drug concentration which causes 50% cell growth inhibition
# Excerpt: (§2) In Vitro Cytotoxicity Studies.
# HL60 cells = assay: cells; type: cell-based; conditions: for IC50: read-out: IC50 - drug concentration which causes 50% cell growth inhibition
# Excerpt: as §2
# [2] = tested on: pancreatic cell line 10.05; assay: SRB-based assay, pancreatic cell line 10.05 (FIG. 5); design: species or system human; conditions: 120 hrs exposure
# Excerpt: as §2
# (§3) The compound of Example 2 is also potently cytotoxic against extremely refractory pancreatic cancer cell lines. FIG. 5 presents the results of an SRB-based assay on the toxicity of Example 2 against the four cell lines mentioned above, and against two pancreatic cell lines, 6.03 and 10.05 (obtained from Dr. Elizabeth Jaffe, Johns Hopkins University, Baltimore Md.). […] were exposed to the agent for 120 hrs. It is clear that both of these lines are sensitive to the compound.
# [3] = tested on: 10.05 pancreatic cancer cells; assay: Morphological examination of treated cells; type: cell-based, human; conditions: 10.05 cells, treated vs untreated
# Excerpt: The FACS analysis evidence of apoptosis was substantiated by morphological examination of the treated 10.05 pancreatic cancer cells. […] Similar results were obtained with the 6.03 cells.
# [4] = tested on: HCT116, HT29, A549 and Mel.SK2 tumor cell lines; assay: Sulforhodamine B (SRB) assay on the four tumor types (FIG. 4); type: cell-based; conditions: varying concentrations
# Excerpt: as §2
# [5] = tested on: 10.05 pancreatic cancer line; assay: Flow cytometry (FACS) cell cycle analysis, 10.05; type: cell-based, human; conditions: 10.05 cells
# Procedure: (§4) Flow Cytometry Analysis. A suspension of 0.5×10^6 cells in 8 ml of medium were placed in 25 cm^2 T flask and allowed to attach for 24 h. The cells were then exposed for 6 h to 100 nM of drug . After removal of drug the cells were washed with PBS. Fresh medium (8 ml) was added and incubation at 37° C. in 5% CO2 in complete humidity was continued for an additional five days. At appropriate intervals, treated and control cells were released from flasks by incubation with trypsin (0.05 mg/ml)/EDTA (0.02 mg/ml) for 5 min at 37° C., collected in ice-cold PBS, combined with the removed medium that might contain floating cells, and centrifuged at 4° C. Cell pellets were re-suspended in PBS containing 1% fetal bovine serum. The cells were fixed and stained for fluorescence-activated cell sorting according to standard procedures (Crissman et al., Cytometry 3:84-90(1992)). Fluorescence histograms were obtained on a Coulter EPICS753 Cell Sorter using an argon laser and mean peaks were analyzed.
# (§5) Similar cell cycle experiments were carried out on the 10.05 pancreatic cancer line.
# [6] = tested on: HCT 116 colon cancer cell; assay: Flow cytometry (FACS) cell cycle analysis, HCT116; type: cell-based, human; conditions: 100 nM for 6 hrs, then culture
# Procedure: as §4
# In order to determine the mode of cell death induced by the compounds of the invention, the effect of the compound of Example 2 on the cell cycle was studied, utilizing Fluorescence Activated Cell Sorting SACS) analysis. HCT 116 colon cancer cell were treated with the compound of Example 2 for 6 hrs at a concentration of 100 nM, and then allowed to grow in culture for varying times.
# [7] = tested on: 6.03 pancreatic cancer cells; assay: Flow cytometry (FACS) cell cycle analysis, 6.03; type: cell-based, human; conditions: 6.03 cells
# Procedure: as §4, §5
# [8] = tested on: NCI 60 human tumor cell line panel; assay: NCI 60 human tumor cell line panel; type: cell-based; conditions: NCI 60 panel
# HCT116 cells = assay: cells; conditions: for growth inhibition of HCT116 at 1 nM: MTT dose-response; for IC50: read-out: IC50 - drug concentration which causes 50% cell growth inhibition
# Procedure: as §1
# (§6) In Vitro Cytotoxicity Studies. Cells were seeded in quadruplicate for each studied concentration in 96-well plates (100 μL of medium containing 2000-2500 cells per well) and were allowed to grow for 24 h (day 0). Stock solutions (2.5 mM) of test compounds were prepared freshly by dissolving their free base forms in distilled water-DMSO (50:50) mixture containing two equivalents of methanesulfonic acid and then diluted in distilled water to the concentration of 500 μM. These solutions were used to prepare 2 μM working solution and its 10-fold serial dilutions in appropriate media. 100 μL of drug containing medium or vehicle (control) was added to each well on day 1. The cytotoxicity was determined using two different methods: the MTT-based, CellTiter96™ Non-Radioactive Cell Proliferation Assay (Promega Inc., Madison, Wis.) according to instructions provided by the manufacturer, and/or the sulforhodamine B (SRB) method (Skehan et al., J. Natl. Cancer Inst. 82:1107-1112 (1990)). At the time at which drugs were added assays were performed on extra reference plates to determine the cell population density at time 0 (T0). After 96 h incubation at 37 ° C. in a humidified atmosphere containing 5% CO2, the assays were performed on test (T) and control (C) plates. The absorbance of the wells was determined by a Microplate Reader at […]. Cellular responses were calculated from the data as described previously: 100×[(T−T0)/(C−T0)] for T>T0 and 100×[(T−T0)/T0] for T<T0. (Monks et al., J. Natl. Cancer Inst. 83:757-766 (1991)).
# (§7) At the end of the test period the wells are treated with the MTT dye solution and incubated for 4 hours. Cells which are alive convert the yellow tetrazolium dye into the blue, insoluble formazan product. This precipitate is solubilized, and the absorption at 570 nm is read in an ELISA reader.
# MELSK2 cells = assay: cells; conditions: for IC50: read-out: IC50 - drug concentration which causes 50% cell growth inhibition
# Procedure: as §1, §6, §7
# A549 cells = assay: cells; conditions: for IC50: read-out: IC50 - drug concentration which causes 50% cell growth inhibition
# Procedure: as §1, §6, §7
# HT29 cells = assay: cells; conditions: for IC50: read-out: IC50 - drug concentration which causes 50% cell growth inhibition
# Procedure: as §1, §6, §7
# [9] = tested on: pancreatic cell line 6.03; assay: SRB-based assay, pancreatic cell line 6.03 (FIG. 5); design: species or system human; conditions: 120 hrs exposure
# Excerpt: as §2, §3
# [10] = MCF7, 96 h incubation, read-out: LC50 - drug concentration which causes 50% cell death
# [11] = HL60, 96 h incubation, read-out: LC50 - drug concentration which causes 50% cell death
# [12] = read-out: LC50 - drug concentration which causes 50% cell death, HCT116, 96 h incubation
# [13] = read-out: LC50 - drug concentration which causes 50% cell death, MELSK2, 96 h incubation
# [14] = read-out: LC50 - drug concentration which causes 50% cell death, A549, 96 h incubation
# [15] = read-out: LC50 - drug concentration which causes 50% cell death, HT29, 96 h incubation
SMILES,cytotoxic activity against the three adenocarcinomas [1],CC50 (MCF7 cells) [nM],"IC50 (MCF7 cells; MCF7, 96 h incubation) [nM]",CC50 (HL60 cells) [nM],"IC50 (HL60 cells; HL60, 96 h incubation) [nM]",CC50 (HCT116 cells) [nM],growth inhibition of HCT116 at 1 nM (HCT116 cells; FIG. 3),"IC50 (HCT116 cells; HCT116, 96 h incubation) [nM]",CC50 (MELSK2 cells) [nM],"IC50 (MELSK2 cells; MELSK2, 96 h incubation) [nM]",CC50 (A549 cells) [nM],"IC50 (A549 cells; A549, 96 h incubation) [nM]",CC50 (HT29 cells) [nM],"IC50 (HT29 cells; HT29, 96 h incubation) [nM]",CC50 (MCF7 cells; [10]) [nM],CC50 (HL60 cells; [11]) [nM],CC50 (HCT116 cells; [12]) [nM],CC50 (MELSK2 cells; [13]) [nM],CC50 (A549 cells; [14]) [nM],CC50 (HT29 cells; [15]) [nM],other results
O=C1c2cccc3cc([N+](=O)[O-])cc(c23)C(=O)N1CCCN1CCN(CCCNc2ccc3ncn4c5ccccc5c(=O)c2c34)CC1 [Example 2],outstanding cytotoxic activity,> 1000,3.2,33,3.5,32,almost complete growth inhibition,0.5,60,4,35,0.6,65,0.9,,,,,,,"effect on line 10.05 at 1 μM [2]: substantial cell death; morphology of treated cells [3]: evidence of chromatin fragmentation; cytotoxic activity in the SRB assay compared with MTT [4]: essentially mirror the results obtained with the MTT end-point; apoptosis (growth of the sub-G1 fraction) at 144 hrs [5]: substantial apoptosis; cell cycle effect at 24 hrs ([6]; 24 hrs): growth arrested at G2-M; sub-G1 fraction (apoptotic death) at 96 hrs ([6]; 96 hrs): dominated the distribution; apoptosis by cell cycle analysis [7]: strong evidence of apoptosis; median activity, growth inhibition of all of the tumor cell lines [8]: nanomolar range; effect on line 6.03 at 100 nM [9]: growth arrested"
"CN(C)CCN1C(=O)c2cccc3cc([N+](=O)[O-])cc(c23)C1=O [Mitonafide, mitonafide, reference compound]",,,,,,,,,,,,,,,,,,,,,"activity at 100 nM drug concentration ([1]; HCT116, HT29, A549, MelSK2): not very active; IC50 (MCF7 cells; Homo sapiens, MCF7, 96 h): 245 nM; CC50 (MCF7 cells; Homo sapiens, MCF7, 96 h, read-out: LC50 - drug concentration which causes 50% cell death): > 1000 nM; IC50 (HL60 cells; Homo sapiens, HL-60, 96 h): 45 nM; CC50 (HL60 cells; Homo sapiens, HL-60, 96 h, read-out: LC50 - drug concentration which causes 50% cell death): 400 nM; concentration at which almost complete growth inhibition is reached (HCT116 cells; HCT116, MTT dose-response, FIG. 3): 1 µM; IC50 (HCT116 cells; Homo sapiens, HCT-116, 96 h): 250 nM; CC50 (HCT116 cells; Homo sapiens, HCT-116, 96 h, read-out: LC50 - drug concentration which causes 50% cell death): > 1000 nM; IC50 (MELSK2 cells; Homo sapiens, 96 h): 150 nM; CC50 (MELSK2 cells; Homo sapiens, 96 h, read-out: LC50 - drug concentration which causes 50% cell death): 700 nM; IC50 (A549 cells; Homo sapiens, A549, 96 h): 65 nM; CC50 (A549 cells; Homo sapiens, A549, 96 h, read-out: LC50 - drug concentration which causes 50% cell death): 800 nM; IC50 (HT29 cells; Homo sapiens, HT-29, 96 h): 300 nM"
O=C1c2cccc3cc([N+](=O)[O-])cc(c23)C(=O)N1CCCN1CCN(CCCNc2ccc3ncn4c5ccc(F)cc5c(=O)c2c34)CC1 [Example 4],outstanding cytotoxic activity,> 1000,3.5,33,3.5,35,almost complete growth inhibition,0.5,70,4,35,0.6,35,1.5,,,,,,,
Nc1cc2c3c(cccc3c1)C(=O)N(CCCN1CCN(CCCNc3ccc4ncn5c6ccccc6c(=O)c3c45)CC1)C2=O [Example 6],,,32,,5,,,2.2,,15,,2.5,,8,> 1000,450,80,750,100,750,
CN(CCCNc1ccc2ncn3c4ccccc4c(=O)c1c23)CCCN1C(=O)c2cccc3cc([N+](=O)[O-])cc(c23)C1=O [Example 1],,,50,,120,,,8,,150,,25,,25,> 1000,500,220,> 1000,500,400,
Nc1cc2c3c(cccc3c1)C(=O)N(CCCN1CCN(CCCNc3ccc4ncn5c6ccc(F)cc6c(=O)c3c45)CC1)C2=O [Example 8],,> 1000,46,450,4,230,,1.8,> 1000,20,150,2,> 1000,3.5,,,,,,,
